Patent publication US20110091473A1, “NOVEL ANTIBODY THERAPIES” (GENMAB A/S, priority 2007, published 2011)

Legend:
CD20 on WIL2-S cells = molecular target: T1, CD20 on WIL2-S cells (Homo sapiens, UniProt P11836); assay: Binding of anti-CD20 mAb to WIL2-S cells with varied cholesterol content; conditions: for affinity in binding to cholesterol-depleted cells: WIL2-S cells depleted with lovastatin; for binding affinity after addition of cholesterol: cholesterol added to non-treated control WIL2-S cells; for binding affinity after replenishing of cholesterol: lovastatin-treated WIL2-S cells replenished with cholesterol
T1 construct: endogenous in cells; host or cells: WIL2-S cells
T1 sequence (P11836 1-297): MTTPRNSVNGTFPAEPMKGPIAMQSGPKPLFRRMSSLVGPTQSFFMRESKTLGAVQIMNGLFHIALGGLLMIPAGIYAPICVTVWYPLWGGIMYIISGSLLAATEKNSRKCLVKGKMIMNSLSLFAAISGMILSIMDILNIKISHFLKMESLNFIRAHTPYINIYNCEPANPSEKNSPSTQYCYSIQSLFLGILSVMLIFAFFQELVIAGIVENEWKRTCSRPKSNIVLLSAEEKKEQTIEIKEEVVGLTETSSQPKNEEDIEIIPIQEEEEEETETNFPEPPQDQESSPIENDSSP
Procedure: To reconstitute cholesterol into the cell membrane of the cells or increase the cholesterol content of the untreated cells, cholesterol (ICN Biomedicals, Zoetermeer, The Netherlands) was added to the test medium in a final concentration of 5 mg/ml 2 hours prior to FACS analysis. The cells were incubated for 30 minutes at 37° C. under gentle shaking conditions, after which the cells were washed twice in PBS and resuspended to 2×10^6 viable cells/ml. For comparison MβCD- and lovastatin-treated cell lines treated with only diluent were included.
To confirm that lovastatin treatment might result in a change in CD20 mAb binding affinity lovastatin-treated RAJI cells were stained with a concentration curve of CD20 mAb. […] After washing with FACS buffer, polyclonal rabbit-anti-human IgG-FITC (DAKO A/S, Denmark) was added for 30 minutes at 4° C. to detect the bound CD20 mAb. Cells were washed again, resuspended in FACS buffer and analyzed on a flow cytometer. The mean fluorescence intensity (MFI) was taken as measure for CD20 binding of the mAb.
Binding of anti-CD20 mAb to CD20 on various B cell lines could be restored upon replenishment of the cell membrane cholesterol content via addition of cholesterol (according to procedure as described in Example 4) to either MβCD- or lovastatin-treated cells, as measured by FACS analysis (FIG. 3). This was also observed for WIL2-S cells for which binding affinity of anti-CD20 mAbs to CD20 was determined after reconstitution of cholesterol of cholesterol-depleted cells using flow cytometry (FIG. 13).

Daudi cells [1] = assay: CD20 mAb-induced CDC of Daudi cells, PI/FACS analysis; type: cell-based, human; conditions: for induction of CDC: non-treated Daudi cells, 15% normal human serum
Procedure: Cells were either non-treated or cholesterol-depleted as described in Example 2, Example 3 and Example 4, and resuspended in test medium to a concentration of 2×10^6 viable cells/ml. Daudi cells were used as target cells in a mAb-induced CDC assay. 50 μl of cell suspension was incubated with 50 μl anti-CD20 mAb in a serial dilution for 15 minutes at room temperature. After the incubation period, Normal Human Serum (M0008, Sanquin, Amsterdam, The Netherlands) was added as a source of complement (final concentration, 15%) to the cell suspension in round-bottomed microtiter plates (Nunc, Rochester, N.Y.). The mixture was incubated for 45 minutes at 37° C. after which the reaction was stopped by placing the samples on ice. Propidium iodide (PI, Sigma Aldrich, Zwijndrecht, The Netherlands) was added as a means to visualize the DNA content which becomes accessible upon permeabilisation of the cell membrane. The amount of PI-positive cells is directly correlated to the amount of dead cells, and measured using flow cytometry.

WIL2-S cells = assay: CD20 mAb-induced CDC of WIL2-S cells, PI/FACS analysis; type: cell-based, human; conditions: for CDC inducing capacity after cholesterol replenishment: WIL2-S cells, cholesterol replenished; for sensitivity for CDC induction: lovastatin-treated vs non-treated WIL2-S cells
RAJI cells = assay: Rituximab-induced ADCC of RAJI cells, 51Cr-release assay with PBMC; type: cell-based, human; conditions: for EC50 for rituximab-mediated ADCC: E:T 100:1
Procedure: In the antibody-dependent cellular cytotoxicity (ADCC) assay target B cells are labelled with radioactive chromium (^51Cr), and incubated with antibody and effector cells. Upon lysis the target cells release ^51Cr which can be measured by separation of the supernatant from the cells and quantification using a scintillation counter.
RAJI cells (obtained from ECACC, Porton Down, United Kingdom) served as target cells, and were cultured in RPMI 1640 supplemented with 10% heat-inactivated cosmic calf serum (CCS), 1 U/ml penicillin, 1 μg/ml streptomycin, and 4 mM L-glutamine (all from Invitrogen, Carlsbad, Calif.). RAJI cells were either non-treated or cholesterol-depleted using lovastatin (10 μM) as described in Example 3, and re-suspended in test medium to a concentration of 2×10^6 viable cells/ml.
RAJI cells were labeled with 20 μCi^51Cr (Amersham Biosciences, Uppsala, Sweden) for 2 hours. After extensive washing in medium, the cells were adjusted to 2×10^5 cells/ml. […] Assays were started by adding ^51Cr-labeled RAH cells (50 μl) giving a final volume of 200 >l. For isolated effector cells, containing 20% NK cells, an effector to target (E:T) ratio of 100:1 was used. After incubation (4 hours, 37° C.), assays were stopped by centrifugation, and ^51Cr release from triplicates was measured in counts per minute (cpm) in a scintillation counter. Percentage of cellular cytotoxicity was calculated using the following formula:
% specific lysis=(experimental cpm−basal cpm)/(maximal cpm−basal cpm)×100
with maximal ^51Cr release determined by adding TritonX-100 (5% final concentration) to target cells, and basal release measured in the absence of sensitizing antibodies and effector cells.

Daudi cells [2] = assay: CDC of Daudi cells, MTT analysis; type: cell-based, human; conditions: increased concentrations of MβCD
Procedure: CDC was induced by incubating B cells with anti-CD20 mAb (as described in Example 2). After 1-hour incubation (3-(4,5-dimethylthiazol-2-yl)-2,5-diphenyltetrazolium bromide (MTT) solution (5 mg/ml, Roche, Diagnostics, Almere, The Netherlands) was added to each well (flat-bottom microtiter plates; Nunc, Rochester, N.Y.). The reaction was stopped after 4 hours of incubation at 37° C. by the addition of 100 μl of 20% SDS (Roche Diagnostics, Almere, The Netherlands). After overnight incubation at 37° C. the absorbance of the samples was measured at 550-525 nm using an Elisa reader (EL808x, Biotek instruments, Highland park, Vt., USA). Cytotoxicity was expressed as a relative viability of the stimulated cells compared to cells incubated with medium only and was calculated as follows: relative viability=[(Ae−Ab)/(Ac−Ab)]*100, where Ab is the background absorbance, Ae is experimental absorbance of the lysed cells and Ac is the absorbance of untreated cells. The viability was expressed as percentage survival in comparison to non-cholesterol depleted cells (control).

| Substance | affinity in binding to cholesterol-depleted cells (CD20 on WIL2-S cells) | binding affinity after addition of cholesterol (CD20 on WIL2-S cells) | binding affinity after replenishing of cholesterol (CD20 on WIL2-S cells) | CDC-mediated lysis (Daudi cells [1]; cholesterol-depleted (lovastatin or MβCD) Daudi cells) | induction of CDC (Daudi cells [1]) | CDC inducing capacity after cholesterol replenishment (WIL2-S cells) | sensitivity for CDC induction (WIL2-S cells) | EC50 for rituximab-mediated ADCC (RAJI cells; control (non-treated) RAJI cells) [µg/mL] | EC50 for rituximab-mediated ADCC (RAJI cells; lovastatin-treated (10 μM) RAJI cells) [µg/mL] | increase of EC50 for rituximab-mediated ADCC (RAJI cells; lovastatin-treated vs control cells) [fold] | cells lysed via CDC (Daudi cells [1]; cholesterol-depleted Daudi cells) [%] | mAb-induced CDC (cell survival) (Daudi cells [2]) |
| --- | --- | --- | --- | --- | --- | --- | --- | --- | --- | --- | --- | --- |
| rituximab: anti-CD20 antibody Rituxan/MabThera, type I | reduced affinity | further improved the binding affinity | restores affinity to the level of non-treated cells | abrogated | induced CDC | fully restored | less sensitive | 0.024 | 0.082 | ~4 |  |  |
| 2F2: human anti-CD20 mAb, VH SEQ ID NO:1, VL SEQ ID NO:2, disclosed in WO 2004/035607 | reduced affinity | further improved the binding affinity | restores affinity to the level of non-treated cells |  | induced CDC | fully restored | less sensitive |  |  |  | 50 | diminished |
